# Measured values reported in patent publication US12157741B2, “Macrocyclic inhibitors of DYRK1A” (DANA-FARBER CANCER INSTITUTE, INC., priority 2018, dated 2024).
# Read-outs that look alike come from different tables or passages of the source.
# Key:
# Format in all cases: binding
# various enzymes [1] = target: T1, various enzymes (Homo sapiens, UniProt O14757); details: compound 1 uM
# T1 sequence (O14757 1-476): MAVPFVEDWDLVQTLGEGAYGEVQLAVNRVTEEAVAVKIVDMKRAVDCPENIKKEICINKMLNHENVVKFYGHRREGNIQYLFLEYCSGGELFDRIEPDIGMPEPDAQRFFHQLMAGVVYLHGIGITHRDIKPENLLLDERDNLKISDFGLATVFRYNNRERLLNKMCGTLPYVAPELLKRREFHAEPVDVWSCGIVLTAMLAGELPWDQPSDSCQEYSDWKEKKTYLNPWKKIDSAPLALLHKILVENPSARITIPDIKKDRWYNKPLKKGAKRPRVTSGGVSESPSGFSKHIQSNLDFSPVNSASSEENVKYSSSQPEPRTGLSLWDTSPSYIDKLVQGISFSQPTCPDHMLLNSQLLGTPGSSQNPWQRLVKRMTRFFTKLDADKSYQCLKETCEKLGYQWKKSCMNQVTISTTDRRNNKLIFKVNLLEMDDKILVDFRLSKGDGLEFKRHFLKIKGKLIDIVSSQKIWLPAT
# Experimental: (§1) Ambit profiling was conducted in accordance with the manufacturer's instructions.
# various enzymes [2] = target: various enzymes (Homo sapiens, UniProt O75116); details: compound 1 uM
# Experimental: as §1
# various enzymes [3] = target: various enzymes (Homo sapiens, UniProt O95819); details: compound 1 uM
# Experimental: as §1
# various enzymes [4] = target: various enzymes (Homo sapiens, UniProt P04629); details: compound 1 uM
# Experimental: as §1
# various enzymes [5] = target: various enzymes (Homo sapiens, UniProt P07949, V804L)
# Experimental: as §1
# various enzymes [6] = target: various enzymes (Homo sapiens, UniProt P08581); details: compound 1 uM
# Experimental: as §1
# various enzymes [7] = target: various enzymes (Homo sapiens, UniProt P09619); details: compound 1 uM
# Experimental: as §1
# various enzymes [8] = target: various enzymes (Homo sapiens, UniProt P15056); details: compound 1 uM
# Experimental: as §1
# various enzymes [9] = target: various enzymes (Homo sapiens, UniProt P21802); details: compound 1 uM
# Experimental: as §1
# various enzymes [10] = target: various enzymes (Homo sapiens, UniProt P29320); details: compound 1 uM
# Experimental: as §1
# various enzymes [11] = target: various enzymes (Homo sapiens, UniProt P30291); details: compound 1 uM
# Experimental: as §1
# various enzymes [12] = target: various enzymes (Homo sapiens, UniProt P33981); details: compound 1 uM
# Experimental: as §1
# various enzymes [13] = target: various enzymes (Homo sapiens, UniProt P35916); details: compound 1 uM
# Experimental: as §1
# various enzymes [14] = target: various enzymes (Homo sapiens, UniProt P35968); details: compound 1 uM
# Experimental: as §1
# various enzymes [15] = target: various enzymes (Homo sapiens, UniProt P42345); details: compound 1 uM
# Experimental: as §1
# various enzymes [16] = target: T2, various enzymes (Homo sapiens, UniProt P45985); details: compound 1 uM
# T2 sequence (P45985 1-399): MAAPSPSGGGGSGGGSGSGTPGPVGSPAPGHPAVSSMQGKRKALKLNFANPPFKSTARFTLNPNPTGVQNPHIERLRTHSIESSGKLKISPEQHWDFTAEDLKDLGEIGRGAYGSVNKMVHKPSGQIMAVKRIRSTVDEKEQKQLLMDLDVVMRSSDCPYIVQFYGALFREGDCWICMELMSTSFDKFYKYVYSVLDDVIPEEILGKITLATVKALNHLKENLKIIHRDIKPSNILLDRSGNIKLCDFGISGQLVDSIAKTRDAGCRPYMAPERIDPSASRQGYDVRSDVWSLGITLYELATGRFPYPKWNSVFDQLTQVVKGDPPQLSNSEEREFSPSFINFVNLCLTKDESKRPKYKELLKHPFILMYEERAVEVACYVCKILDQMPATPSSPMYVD
# Experimental: as §1
# various enzymes [17] = target: various enzymes (Homo sapiens, UniProt P46734); details: compound 1 uM
# Experimental: as §1
# various enzymes [18] = target: various enzymes (Homo sapiens, UniProt P49336); details: compound 1 uM
# Experimental: as §1
# various enzymes [19] = target: various enzymes (Homo sapiens, UniProt P49674); details: compound 1 uM
# Experimental: as §1
# various enzymes [20] = target: various enzymes (Homo sapiens, UniProt P52333); details: compound 1 uM
# Experimental: as §1
# various enzymes [21] = target: various enzymes (Homo sapiens, UniProt P53778); details: compound 1 uM
# Experimental: as §1
# various enzymes [22] = target: various enzymes (Homo sapiens, UniProt P54646); details: compound 1 uM
# Experimental: as §1
# various enzymes [23] = target: various enzymes (Homo sapiens, UniProt P54764); details: compound 1 uM
# Experimental: as §1
# various enzymes [24] = target: various enzymes (Homo sapiens, UniProt Q00536); details: compound 1 uM
# Experimental: as §1
# various enzymes [25] = target: various enzymes (Homo sapiens, UniProt Q04771); details: compound 1 uM
# Experimental: as §1
# various enzymes [26] = target: various enzymes (Homo sapiens, UniProt Q15375); details: compound 1 uM
# Experimental: as §1
# various enzymes [27] = target: various enzymes (Homo sapiens, UniProt Q15569); details: compound 1 uM
# Experimental: as §1
# various enzymes [28] = target: various enzymes (Homo sapiens, UniProt Q8WU08); details: compound 1 uM
# Experimental: as §1
# various enzymes [29] = target: various enzymes (Homo sapiens, UniProt Q96Q40); details: compound 1 uM
# Experimental: as §1
# various enzymes [30] = target: various enzymes (Homo sapiens, UniProt Q9BRS2); details: compound 1 uM
# Experimental: as §1
# various enzymes [31] = target: various enzymes (Homo sapiens, UniProt Q9BZL6); details: compound 1 uM
# Experimental: as §1
# various enzymes [32] = target: various enzymes (Homo sapiens, UniProt Q9H422); details: compound 1 uM
# Experimental: as §1
# various enzymes [33] = target: various enzymes (Homo sapiens, UniProt Q9HCP0); details: compound 1 uM
# Experimental: as §1
# Sequence of various enzymes (Homo sapiens, UniProt P07949, V804L) (P07949 29-1114 V804L): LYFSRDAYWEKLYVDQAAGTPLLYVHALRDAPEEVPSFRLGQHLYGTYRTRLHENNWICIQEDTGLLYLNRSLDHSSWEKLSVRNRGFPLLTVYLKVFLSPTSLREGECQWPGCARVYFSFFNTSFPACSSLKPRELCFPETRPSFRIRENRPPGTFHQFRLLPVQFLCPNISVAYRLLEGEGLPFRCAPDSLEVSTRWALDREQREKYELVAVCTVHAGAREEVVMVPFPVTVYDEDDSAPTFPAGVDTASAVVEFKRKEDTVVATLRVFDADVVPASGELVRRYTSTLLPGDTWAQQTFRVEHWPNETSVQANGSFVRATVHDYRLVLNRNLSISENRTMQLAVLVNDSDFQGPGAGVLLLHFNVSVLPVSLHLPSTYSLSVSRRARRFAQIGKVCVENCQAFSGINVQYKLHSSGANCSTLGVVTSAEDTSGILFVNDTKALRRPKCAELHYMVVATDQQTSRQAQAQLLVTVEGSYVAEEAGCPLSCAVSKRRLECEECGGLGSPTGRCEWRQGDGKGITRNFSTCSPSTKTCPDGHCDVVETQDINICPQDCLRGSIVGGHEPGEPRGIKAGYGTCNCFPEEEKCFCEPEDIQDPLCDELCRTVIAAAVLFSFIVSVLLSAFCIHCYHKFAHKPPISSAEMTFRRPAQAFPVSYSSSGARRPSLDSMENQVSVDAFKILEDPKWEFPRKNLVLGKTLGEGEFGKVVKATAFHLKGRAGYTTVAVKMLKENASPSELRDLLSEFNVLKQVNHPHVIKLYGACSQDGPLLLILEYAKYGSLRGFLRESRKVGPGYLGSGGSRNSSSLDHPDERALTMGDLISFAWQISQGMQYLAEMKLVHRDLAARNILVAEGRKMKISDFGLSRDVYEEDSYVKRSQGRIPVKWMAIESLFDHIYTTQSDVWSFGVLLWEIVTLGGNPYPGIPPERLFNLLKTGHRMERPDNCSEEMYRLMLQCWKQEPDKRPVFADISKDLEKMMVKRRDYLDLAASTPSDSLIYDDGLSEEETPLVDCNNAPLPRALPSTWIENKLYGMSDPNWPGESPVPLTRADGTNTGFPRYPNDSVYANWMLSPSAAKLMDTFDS
# Sequence of various enzymes (Homo sapiens, UniProt P29320) (P29320 21-983): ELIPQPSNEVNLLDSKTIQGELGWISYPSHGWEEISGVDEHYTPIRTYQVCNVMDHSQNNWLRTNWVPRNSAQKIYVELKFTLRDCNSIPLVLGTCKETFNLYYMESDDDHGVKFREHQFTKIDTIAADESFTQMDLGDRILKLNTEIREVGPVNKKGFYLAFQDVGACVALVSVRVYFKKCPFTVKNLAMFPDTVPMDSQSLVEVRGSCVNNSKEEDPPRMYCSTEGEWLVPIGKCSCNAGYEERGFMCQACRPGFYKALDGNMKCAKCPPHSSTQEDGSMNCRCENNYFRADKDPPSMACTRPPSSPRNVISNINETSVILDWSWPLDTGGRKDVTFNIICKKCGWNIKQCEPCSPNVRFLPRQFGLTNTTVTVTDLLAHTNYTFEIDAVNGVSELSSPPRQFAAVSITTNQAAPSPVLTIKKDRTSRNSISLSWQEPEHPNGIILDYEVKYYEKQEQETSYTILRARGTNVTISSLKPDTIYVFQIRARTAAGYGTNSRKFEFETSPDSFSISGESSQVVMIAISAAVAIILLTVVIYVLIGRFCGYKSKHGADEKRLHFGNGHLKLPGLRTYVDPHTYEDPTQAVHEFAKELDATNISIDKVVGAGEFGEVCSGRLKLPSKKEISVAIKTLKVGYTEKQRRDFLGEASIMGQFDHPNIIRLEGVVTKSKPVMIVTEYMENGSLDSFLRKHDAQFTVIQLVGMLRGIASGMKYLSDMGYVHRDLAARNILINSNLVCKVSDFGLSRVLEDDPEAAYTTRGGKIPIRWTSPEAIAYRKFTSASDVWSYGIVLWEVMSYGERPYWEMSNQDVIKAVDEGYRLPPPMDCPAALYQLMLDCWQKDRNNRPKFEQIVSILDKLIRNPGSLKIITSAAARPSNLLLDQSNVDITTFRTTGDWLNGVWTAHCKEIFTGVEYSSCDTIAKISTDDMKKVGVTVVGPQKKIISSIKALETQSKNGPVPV
# Sequence of various enzymes (Homo sapiens, UniProt P09619) (P09619 33-1106): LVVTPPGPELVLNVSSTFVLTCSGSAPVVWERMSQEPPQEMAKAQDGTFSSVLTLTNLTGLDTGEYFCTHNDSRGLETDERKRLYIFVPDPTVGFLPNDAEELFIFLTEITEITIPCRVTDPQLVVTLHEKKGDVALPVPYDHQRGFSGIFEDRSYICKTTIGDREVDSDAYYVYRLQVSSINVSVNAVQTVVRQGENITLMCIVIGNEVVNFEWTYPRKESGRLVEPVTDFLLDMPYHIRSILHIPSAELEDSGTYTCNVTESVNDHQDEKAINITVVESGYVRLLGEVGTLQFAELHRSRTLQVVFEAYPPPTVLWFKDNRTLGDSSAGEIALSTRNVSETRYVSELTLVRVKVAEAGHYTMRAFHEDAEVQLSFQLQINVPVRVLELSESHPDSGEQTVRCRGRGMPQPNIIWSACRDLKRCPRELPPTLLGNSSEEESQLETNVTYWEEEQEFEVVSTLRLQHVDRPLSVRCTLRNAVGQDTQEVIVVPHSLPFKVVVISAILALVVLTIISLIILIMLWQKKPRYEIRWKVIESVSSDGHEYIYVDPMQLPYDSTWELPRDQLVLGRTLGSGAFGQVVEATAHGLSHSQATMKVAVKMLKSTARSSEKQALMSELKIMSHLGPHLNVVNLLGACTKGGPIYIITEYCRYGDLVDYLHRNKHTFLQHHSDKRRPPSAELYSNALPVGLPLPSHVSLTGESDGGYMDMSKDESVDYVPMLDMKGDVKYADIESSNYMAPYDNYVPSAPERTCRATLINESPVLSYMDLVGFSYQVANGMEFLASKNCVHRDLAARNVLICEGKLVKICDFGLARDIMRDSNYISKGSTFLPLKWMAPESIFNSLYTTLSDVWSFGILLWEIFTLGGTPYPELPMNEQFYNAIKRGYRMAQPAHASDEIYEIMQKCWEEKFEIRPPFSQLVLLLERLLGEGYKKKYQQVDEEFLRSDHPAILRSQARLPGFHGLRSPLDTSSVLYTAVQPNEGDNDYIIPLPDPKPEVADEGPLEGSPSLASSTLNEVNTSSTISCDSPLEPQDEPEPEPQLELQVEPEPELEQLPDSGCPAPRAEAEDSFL
# Sequence of various enzymes (Homo sapiens, UniProt Q8WU08) (Q8WU08 whole entry): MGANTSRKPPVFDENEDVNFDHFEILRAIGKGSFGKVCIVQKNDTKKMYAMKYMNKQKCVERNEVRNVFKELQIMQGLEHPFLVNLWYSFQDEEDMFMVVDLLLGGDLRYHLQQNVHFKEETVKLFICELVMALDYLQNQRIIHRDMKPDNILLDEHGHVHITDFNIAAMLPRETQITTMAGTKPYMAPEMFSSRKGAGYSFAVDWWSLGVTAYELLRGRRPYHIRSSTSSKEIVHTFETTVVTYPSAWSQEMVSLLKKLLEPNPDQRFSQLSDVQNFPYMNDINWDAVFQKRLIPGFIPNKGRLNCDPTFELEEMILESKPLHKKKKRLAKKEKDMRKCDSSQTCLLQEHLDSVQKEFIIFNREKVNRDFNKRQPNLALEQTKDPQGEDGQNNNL
# Sequence of various enzymes (Homo sapiens, UniProt O75116) (O75116 whole entry): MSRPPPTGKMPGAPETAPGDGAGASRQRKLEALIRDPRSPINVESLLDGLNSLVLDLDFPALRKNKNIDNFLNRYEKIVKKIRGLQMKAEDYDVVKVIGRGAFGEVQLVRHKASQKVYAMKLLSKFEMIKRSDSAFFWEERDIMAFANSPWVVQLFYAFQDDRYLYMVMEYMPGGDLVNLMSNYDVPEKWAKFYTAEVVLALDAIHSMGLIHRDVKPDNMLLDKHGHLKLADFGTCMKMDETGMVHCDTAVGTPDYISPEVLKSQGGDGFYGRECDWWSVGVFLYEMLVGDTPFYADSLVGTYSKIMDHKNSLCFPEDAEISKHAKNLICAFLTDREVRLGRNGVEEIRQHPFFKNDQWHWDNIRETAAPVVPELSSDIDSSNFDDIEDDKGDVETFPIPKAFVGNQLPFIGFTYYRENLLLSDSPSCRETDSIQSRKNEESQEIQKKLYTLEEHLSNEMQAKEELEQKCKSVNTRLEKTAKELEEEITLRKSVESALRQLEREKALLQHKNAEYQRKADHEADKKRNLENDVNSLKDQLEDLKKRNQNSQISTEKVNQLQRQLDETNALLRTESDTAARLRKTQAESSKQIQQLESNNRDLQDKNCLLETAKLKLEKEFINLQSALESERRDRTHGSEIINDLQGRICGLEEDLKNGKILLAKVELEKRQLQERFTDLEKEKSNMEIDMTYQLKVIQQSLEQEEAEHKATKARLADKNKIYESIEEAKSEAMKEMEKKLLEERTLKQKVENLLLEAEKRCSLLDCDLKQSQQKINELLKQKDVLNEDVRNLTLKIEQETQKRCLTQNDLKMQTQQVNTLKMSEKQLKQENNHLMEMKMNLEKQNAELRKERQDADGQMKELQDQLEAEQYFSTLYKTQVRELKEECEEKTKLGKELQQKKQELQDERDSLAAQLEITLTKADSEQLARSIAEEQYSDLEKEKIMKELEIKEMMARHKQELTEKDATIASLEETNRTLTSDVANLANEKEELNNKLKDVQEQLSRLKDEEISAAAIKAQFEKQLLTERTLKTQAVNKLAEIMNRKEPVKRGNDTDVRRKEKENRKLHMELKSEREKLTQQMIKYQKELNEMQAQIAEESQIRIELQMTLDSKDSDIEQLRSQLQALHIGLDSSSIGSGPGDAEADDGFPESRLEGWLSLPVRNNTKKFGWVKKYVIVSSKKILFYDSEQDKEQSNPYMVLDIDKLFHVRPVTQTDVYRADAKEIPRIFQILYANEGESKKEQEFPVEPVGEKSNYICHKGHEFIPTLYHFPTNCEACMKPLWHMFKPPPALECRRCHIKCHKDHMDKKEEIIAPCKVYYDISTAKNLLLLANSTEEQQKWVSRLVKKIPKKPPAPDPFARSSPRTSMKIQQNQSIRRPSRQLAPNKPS
SMILES,Ambit profiling: CHEK1 (various enzymes [1]),Ambit profiling: ROCK2 (various enzymes [2]),Ambit profiling: MAP4K4 (various enzymes [3]),Ambit profiling: MET (various enzymes [6]),Ambit profiling: PDGFRB (various enzymes [7]),Ambit profiling: BRAF (various enzymes [8]),Ambit profiling: FGFR2 (various enzymes [9]),Ambit profiling: EPHA3 (various enzymes [10]),Ambit profiling: WEE1 (various enzymes [11]),Ambit profiling: TTK (various enzymes [12]),Ambit profiling: FLT4 (various enzymes [13]),Ambit profiling: VEGFR2 (various enzymes [14]),Ambit profiling: MTOR (various enzymes [15]),Ambit profiling: MEK4 (various enzymes [16]),Ambit profiling: MEK3 (various enzymes [17]),Ambit profiling: CDK8 (various enzymes [18]),Ambit profiling: CSNK1E (various enzymes [19]),Ambit profiling: JAK3(JH1domain-catalytic) (various enzymes [20]),Ambit profiling: p38-gamma (various enzymes [21]),Ambit profiling: AMPK-alpha2 (various enzymes [22]),other results
"CC(C)N1Cc2nn(C)cc2-c2cnc3[nH]cc(c3c2)-c2cn(nc2C(F)(F)F)CCCC1=O [Compound 45, (Z)-5-isopropyl-31-methyl-13-(trifluoromethyl)-11H,21H,31H-5-aza-2(3,5)-pyrrolo[2,3-b]pyridina-1(4,1),3(4,3)-dipyrazolacyclononaphan-6-one]",100,100,3.5,11,0.1,100,9.5,32,73,20,0.1,2,69,0.5,0,100,23,0,74,87,Ambit profiling: TRKA (various enzymes [4]): 0; Ambit profiling: RET(V804L) (various enzymes [5]; compound 1 uM): 10; Ambit profiling: EPHA4 (various enzymes [23]): 88; Ambit profiling: PCTK1 (various enzymes [24]): 20; Ambit profiling: ACVR1 (various enzymes [25]): 18; Ambit profiling: EPHA7 (various enzymes [26]): 59; Ambit profiling: TESK1 (various enzymes [27]): 99; Ambit profiling: YANK1 (various enzymes [28]): 100; Ambit profiling: PFTAIRE2 (various enzymes [29]): 39; Ambit profiling: RICK1 (various enzymes [30]): 1.4; Ambit profiling: PRKD2 (various enzymes [31]): 43; Ambit profiling: HIPK3 (various enzymes [32]): 15; Ambit profiling: CSNK1G1 (various enzymes [33]): 100
"COc1c2c(nn1C)CN(C(C)C)C(=O)CCCn1cc(c(C(F)(F)F)n1)-c1c[nH]c3ncc-2cc13 [Compound 50, (Z)-5-isopropyl-35-methoxy-31-methyl-13-(trifluoromethyl)-11H,21H,31H-5-aza-2(3,5)-pyrrolo[2,3-b]pyridina-1(4,1),3(4,3)-dipyrazolacyclononaphan-6-one]",100,67,3,3.8,0,87,11,45,38,23,0.1,0.8,98,16,7.1,67,13,0,75,57,Ambit profiling: TBKA (various enzymes [4]): 0; Ambit profiling: RET(V804L) (various enzymes [5]): 18; Ambit profiling: EPHA4 (various enzymes [23]): 63; Ambit profiling: PCTK1 (various enzymes [24]): 66; Ambit profiling: ACVR1 (various enzymes [25]): 14; Ambit profiling: EPHA7 (various enzymes [26]): 50; Ambit profiling: TESK1 (various enzymes [27]): 69; Ambit profiling: YANK1 (various enzymes [28]): 24; Ambit profiling: PFTAIRE2 (various enzymes [29]): 60; Ambit profiling: RIOK1 (various enzymes [30]): 16; Ambit profiling: PRKD2 (various enzymes [31]): 55; Ambit profiling: HIPK3 (various enzymes [32]): 26; Ambit profiling: CSNK1G1 (various enzymes [33]): 81
